Reference: patent publication US20070128217A1 (priority 2003, published 2007)

Legend:
[1] = test system: antibodies in sera from SARS patients (sera 1a, 1b, 2, 6, 37, 62, London, SARS-yellow, SARS-green); format: binding, human; design: Binding of serum 6 to linear peptides of protein X1 of SARS-CoV Urbani / Binding of serum 37 to linear peptides of protein X1 of SARS-CoV Urbani / Binding of serum 6 to looped/cyclic peptide (PEPSCAN-ELISA) / Binding of serum 37 to looped/cyclic peptide (PEPSCAN-ELISA) / Binding of serum 37 to looped/cyclic peptides of protein X1 of SARS-CoV Urbani / Binding of serum 6 to linear peptides of protein X2 / Binding of serum 37 to linear peptides of protein X2 / Binding of serum 37 to looped/cyclic peptides of protein X2 of SARS-CoV Urbani / Binding of serum 6 to linear peptides of protein M of SARS-CoV Urbani / Binding of serum 37 to linear peptides of protein M of SARS-CoV Urbani / Binding of serum 6 to looped/cyclic peptides of protein M of SARS-CoV Urbani / Binding of serum 37 to looped/cyclic peptides of protein M of SARS-CoV Urbani / Binding of serum 6 to linear peptides of protein X3 of SARS-CoV Urbani / Binding of serum 37 to linear peptides of protein X3 of SARS-CoV Urbani / Binding of serum 37 to looped/cyclic peptides of protein X3 of SARS-CoV Urbani / Binding of serum 6 to linear peptides of protein X4 of SARS-CoV Urbani / Binding of serum 37 to linear peptides of protein X4 of SARS-CoV Urbani / Binding of serum 37 to looped/cyclic peptides of protein X4 of SARS-CoV Urbani / Binding of serum 6 to linear peptides of protein X5 of SARS-CoV Urbani / Binding of serum 37 to linear peptides of protein X5 of SARS-CoV Urbani / Binding of serum 37 to looped/cyclic peptides of protein X5 of SARS-CoV Urbani / Binding of serum 6 to linear peptides of protein N of SARS-CoV Urbani / Binding of serum 37 to linear peptides of protein N of SARS-CoV Urbani / Binding of serum 6 to linear peptide (PEPSCAN-ELISA) / Binding of serum 1a to looped/cyclic peptides of protein N of SARS-CoV Urbani / Binding of serum 1b to looped/cyclic peptides of protein N of SARS-CoV Urbani / Binding of serum 2 to looped/cyclic peptides of protein N of SARS-CoV Urbani / Binding of serum 6 to looped/cyclic peptides of protein N of SARS-CoV Urbani / Binding of serum 37 to looped/cyclic peptides of protein N of SARS-CoV Urbani / Binding of serum 62 to looped/cyclic peptides of protein N of SARS-CoV Urbani / Binding of serum London to looped/cyclic peptides of protein N of SARS-CoV Urbani / Binding of serum SARS-green to looped/cyclic peptides of protein N of SARS-CoV Urbani: unit not given here
[2] = test system: control sera (pooled serum of ten healthy LUMC hospital workers; commercial negative donor pooled serum from the Dutch bloodbank); format: binding, human; design: Binding of Control serum LUMC to linear peptides / Binding of Control serum Blood-bank to linear peptides / Binding of Control serum LUMC to looped peptides / Binding of Control Serum Blood-Bank to Looped peptides / Binding of Control serum LUMC to linear peptides of the protein M of SARS-CoV Urbani / Binding of Control serum Blood-bank to linear peptides of the protein M of SARS-CoV Urbani / Binding of Control serum LUMC to looped peptides of the protein M of SARS-CoV Urbani / Binding of Control Serum Blood-Bank to Looped peptides of the protein M of SARS-CoV Urbani: unit not given here
[3] = test system: rabbit serum obtained by immunizing a rabbit with the SARS-CoV strain Frankfurt 1; format: binding; design: Binding of a rabbit serum to linear peptides / Binding of a rabbit serum to looped peptides / Rabbit serum linear peptides / Rabbit serum looped peptides / Binding of a rabbit serum to linear peptides of protein N of SARS-CoV Urbani (Rabbit serum linear peptides) / Binding of a rabbit serum to looped/cyclic peptides of protein N of SARS-CoV Urbani (Rabbit serum looped peptides): unit not given here

Q: For VVVHGYFTEVYYQLE, which “Binding of serum 1a to linear peptides of protein X1 of SARS-CoV Urbani” value [1] is on record?
A: 0.8

Q: What about the “Binding of serum 1a to looped/cyclic peptides of protein X1 of SARS-CoV Urbani” value [1] of the same sequence?
A: 0.6

Q: What about the “Binding of serum 1b to linear peptides of protein X1 of SARS-CoV Urbani” value [1] of the same sequence?
A: 0.6

Q: And the “Binding of serum 1b to looped/cyclic peptides of protein X1 of SARS-CoV Urbani” value [1]?
A: 0.5

Q: And the “Binding of serum 2 to linear peptides of protein X1 of SARS-CoV Urbani” value [1]?
A: 0.6

Q: What about the “Binding of serum 2 to looped/cyclic peptides of protein X1 of SARS-CoV Urbani” value [1] of the same sequence?
A: 0.5

Q: What about the “Binding of serum 6 to linear peptides of protein X1 of SARS-CoV Urbani” value [1] of the same sequence?
A: 0.4

Q: And the “Binding of serum 6 to looped/cyclic peptides of protein X1 of SARS-CoV Urbani” value [1]?
A: 0.3

Q: And the “Binding of serum 37 to linear peptides of protein X1 of SARS-CoV Urbani” value [1]?
A: 0.6

Q: What about the “Binding of serum 37 to looped/cyclic peptides of protein X1 of SARS-CoV Urbani” value [1] of the same sequence?
A: 0.5

Q: What about the “Binding of serum 62 to linear peptides of protein X1 of SARS-CoV Urbani” value [1] of the same sequence?
A: 0.4

Q: What about the “Binding of serum 62 to looped/cyclic peptides of protein X1 of SARS-CoV Urbani” value [1] of the same sequence?
A: 0.5

Q: What about the “Binding of serum London to linear peptides of protein X1 of SARS-CoV Urbani” value [1] of the same sequence?
A: 0.2

Q: What about the “Binding of serum London to looped/cyclic peptides of protein X1 of SARS-CoV Urbani” value [1] of the same sequence?
A: 0.2

Q: What about the “Binding of serum SARS-green to linear peptides of protein X1 of SARS-CoV Urbani” value [1] of the same sequence?
A: 0.3

Q: And the “Binding of serum SARS-green to looped/cyclic peptides of protein X1 of SARS-CoV Urbani” value [1]?
A: 0.3

Q: And the “Binding of serum SARS-yellow to linear peptides of protein X1 of SARS-CoV Urbani” value [1]?
A: 0.3

Q: And the “Binding of serum SARS-yellow to looped/cyclic peptides of protein X1 of SARS-CoV Urbani” value [1]?
A: 0.4

Q: What about the “Binding of Control Serum Blood-Bank to Looped peptides” value [2] of the same sequence?
A: 0.4

Q: What about the “Binding of Control serum Blood-bank to linear peptides” value [2] of the same sequence?
A: 0.5

Q: What about the “Binding of Control serum LUMC to linear peptides” value [2] of the same sequence?
A: 1.1

Q: What about the “Binding of Control serum LUMC to looped peptides” value [2] of the same sequence?
A: 0.7

Q: What about the “Binding of a rabbit serum to linear peptides” value [3] of the same sequence?
A: 0.1

Q: And the “Binding of a rabbit serum to looped peptides” value [3]?
A: 0.6

Q: Which “Binding of serum 1a to linear peptides of protein X2” value [1] does the source give for VYHITVSQIQLSLLK here?
A: 0.6

Q: And the “Binding of serum 1a to looped/cyclic peptides of protein X2 of SARS-CoV Urbani” value [1]?
A: 0.5

Q: And the “Binding of serum 1b to linear peptides of protein X2” value [1]?
A: 0.5

Q: And the “Binding of serum 1b to looped/cyclic peptides of protein X2 of SARS-CoV Urbani” value [1]?
A: 0.2

Q: And the “Binding of serum 2 to linear peptides of protein X2” value [1]?
A: 0.5

Q: What about the “Binding of serum 2 to looped/cyclic peptides of protein X2 of SARS-CoV Urbani” value [1] of the same sequence?
A: 0.2

Q: What about the “Binding of serum 6 to linear peptides of protein X2” value [1] of the same sequence?
A: 0.5

Q: And the “Binding of serum 6 to looped/cyclic peptides of protein X2 of SARS-CoV Urbani” value [1]?
A: 0.6

Q: What about the “Binding of serum 37 to linear peptides of protein X2” value [1] of the same sequence?
A: 0.7

Q: And the “Binding of serum 37 to looped/cyclic peptides of protein X2 of SARS-CoV Urbani” value [1]?
A: 0.4

Q: And the “Binding of serum 62 to linear peptides of protein X2” value [1]?
A: 0.4

Q: And the “Binding of serum 62 to looped/cyclic peptides of protein X2 of SARS-CoV Urbani” value [1]?
A: 0.6

Q: What about the “Binding of serum London to linear peptides of protein X2” value [1] of the same sequence?
A: 0.4

Q: And the “Binding of serum London to looped/cyclic peptides of protein X2 of SARS-CoV Urbani” value [1]?
A: 1.3

Q: And the “Binding of serum SARS-green to linear peptides of protein X2” value [1]?
A: 0.2

Q: And the “Binding of serum SARS-green to looped/cyclic peptides of protein X2 of SARS-CoV Urbani” value [1]?
A: 0.3

Q: And the “Binding of serum SARS-yellow to linear peptides of protein X2” value [1]?
A: 0.7

Q: What about the “Binding of serum SARS-yellow to looped/cyclic peptides of protein X2 of SARS-CoV Urbani” value [1] of the same sequence?
A: 0.3

Q: What about the “Binding of Control Serum Blood-Bank to Looped peptides” value [2] of the same sequence?
A: 0.6

Q: And the “Binding of Control serum Blood-bank to linear peptides” value [2]?
A: 0.5

Q: And the “Binding of Control serum LUMC to linear peptides” value [2]?
A: 0.7

Q: What about the “Binding of Control serum LUMC to looped peptides” value [2] of the same sequence?
A: 0.4

Q: And the “Binding of a rabbit serum to linear peptides” value [3]?
A: 0.9

Q: And the “Binding of a rabbit serum to looped peptides” value [3]?
A: 0.4

Q: For VYRINWVTGGIAIAM, which “Binding of serum 1a to linear peptides of protein M of SARS-CoV Urbani” value [1] is on record?
A: 0.9

Q: And the “Binding of serum 1a to looped/cyclic peptides of protein M of SARS-CoV Urbani” value [1]?
A: 0.7

Q: What about the “Binding of serum 1b to linear peptides of protein M of SARS-CoV Urbani” value [1] of the same sequence?
A: 0.8

Q: And the “Binding of serum 1b to looped/cyclic peptides of protein M of SARS-CoV Urbani” value [1]?
A: 0.4

Q: What about the “Binding of serum 2 to linear peptides of protein M of SARS-CoV Urbani” value [1] of the same sequence?
A: 0.8

Q: And the “Binding of serum 2 to looped/cyclic peptides of protein M of SARS-CoV Urbani” value [1]?
A: 0.6

Q: What about the “Binding of serum 6 to linear peptides of protein M of SARS-CoV Urbani” value [1] of the same sequence?
A: 1.0

Q: And the “Binding of serum 6 to looped/cyclic peptides of protein M of SARS-CoV Urbani” value [1]?
A: 0.5

Q: And the “Binding of serum 37 to linear peptides of protein M of SARS-CoV Urbani” value [1]?
A: 0.6

Q: What about the “Binding of serum 37 to looped/cyclic peptides of protein M of SARS-CoV Urbani” value [1] of the same sequence?
A: 0.7

Q: What about the “Binding of serum 62 to linear peptides of protein M of SARS-CoV Urbani” value [1] of the same sequence?
A: 0.6

Q: What about the “Binding of serum 62 to looped/cyclic peptides of protein M of SARS-CoV Urbani” value [1] of the same sequence?
A: 1.1

Q: What about the “Binding of serum London to linear peptides of protein M of SARS-CoV Urbani” value [1] of the same sequence?
A: 0.6

Q: What about the “Binding of serum London to looped/cyclic peptides of protein M of SARS-CoV Urbani” value [1] of the same sequence?
A: 0.2

Q: And the “Binding of serum SARS-green to linear peptides of protein M of SARS-CoV Urbani” value [1]?
A: 0.7

Q: And the “Binding of serum SARS-green to looped/cyclic peptides of protein M of SARS-CoV Urbani” value [1]?
A: 0.3

Q: What about the “Binding of serum SARS-yellow to linear peptides of protein M of SARS-CoV Urbani” value [1] of the same sequence?
A: 0.3

Q: And the “Binding of serum SARS-yellow to looped/cyclic peptides of protein M of SARS-CoV Urbani” value [1]?
A: 0.8

Q: What about the “Binding of Control Serum Blood-Bank to Looped peptides of the protein M of SARS-CoV Urbani” value [2] of the same sequence?
A: 0.7

Q: What about the “Binding of Control serum Blood-bank to linear peptides of the protein M of SARS-CoV Urbani” value [2] of the same sequence?
A: 0.7

Q: What about the “Binding of Control serum LUMC to linear peptides of the protein M of SARS-CoV Urbani” value [2] of the same sequence?
A: 1.0

Q: And the “Binding of Control serum LUMC to looped peptides of the protein M of SARS-CoV Urbani” value [2]?
A: 0.8

Q: What about the “Rabbit serum linear peptides” value [3] of the same sequence?
A: 0.3

Q: And the “Rabbit serum looped peptides” value [3]?
A: 0.4
